Where a name gives a salt, the structure may show the parent alone.
How the values were obtained:
NA of CIV-41915 = NA of CIV-41915 (Influenza A virus, UniProt A0A0H3YBU9); type: biochemical, canine H3N2 influenza A virus (A/canine/Illinois/41915/2015); conditions: read-out: NA enzyme inhibition assay (Mean IC50 ± SD)
NA of rCIV-1177 = NA of rCIV-1177 (Influenza A virus, UniProt A0A2D0WZJ5); type: biochemical; conditions: read-out: NA enzyme inhibition assay (Mean IC50 ± SD)
NA of Beth15 = NA of Beth15 (Influenza A virus, UniProt A0A193ACB1); type: biochemical, human H3N2 influenza A virus (A/Bethesda/55/2015); conditions: read-out: NA enzyme inhibition assay (Mean IC50 ± SD)
CIV-41915 = assay: microbe, parasite or virus in culture; type: cell-based, canine H3N2 influenza A virus (A/canine/Illinois/41915/2015); conditions: Influenza A virus, MDCK, in Canis lupus familiaris, read-out: Phenotypic assay (Mean IC50 ± SD)
rCIV-1177 = assay: microbe, parasite or virus in culture; type: cell-based; conditions: Influenza A virus, MDCK, in Canis lupus familiaris, read-out: Phenotypic assay (Mean IC50 ± SD)
Beth15 = assay: microbe, parasite or virus in culture; type: cell-based, human H3N2 influenza A virus (A/Bethesda/55/2015)

Row | SMILES | IC50 (NA of CIV-41915) [nM] | IC50 (NA of rCIV-1177) [nM] | IC50 (NA of Beth15) [nM] | IC50 (CIV-41915) [nM] | IC50 (rCIV-1177) [nM] | Phenotypic assay (Mean IC50 ± SD) (Beth15) | IC50 (Beth15; Influenza A virus, MDCK, read-out: Phenotypic assay (Mean IC50 ± SD)) [nM]
1 | CCC(CC)O[C@@H]1C=C(C(=O)O)C[C@H](N)[C@H]1NC(C)=O [Oseltamivir carboxylate, oseltamivir carboxylate] | 0.13 ± 0.01 | 0.2 ± 0.01 | – | – | – | – | –
2 | CCC(CC)[C@H](NC(C)=O)[C@@H]1[C@H](O)[C@@H](C(=O)O)C[C@H]1N=C(N)N [Peramivir, peramivir] | 0.15 ± 0.02 | 0.19 ± 0.02 | 0.12 ± 0.02 | – | – | – | –
3 | NC12CC3CC(CC(C3)C1)C2 [Amantadine, amantadine hydrochloride] | – | – | – | 600 ± 100 | 300 ± 100 | resistant | > 100000

— publication PMC7182277, “Characterizing Emerging Canine H3 Influenza Viruses” (PLoS Pathogens, 2020)
